Several values for one entry are separate records, joined by “and”; a condition that tells them apart may be missing. Equal values may be shown once.
Columns and labels:
[1] = test system: Sweet Potato Whitefly (Bemisia tabaci, BEMITA); experiment: Bioassay 8: Sweet Potato Whitefly, spray on cotton seedlings at crawler emergence, nymphs counted 7-9 days after treatment; type: in vivo; settings: F1 alone 0.8 (10^-5) Wt %
[2] = test system: Cotton Aphid (Aphis gossypii, APHIGO); experiment: Bioassay 7: Cotton Aphid, foliar spray on infested cotton seedlings, live aphids counted three days after treatment; type: in vivo

For `CCN(C(=O)CCS(C)(=O)=O)c1sc(-c2cccnc2)nc1Cl` [Formula F1, N-(4-chloro-2-(pyridin-3-yl)thiazol-5-yl)-N-ethyl-3-(methylsulfonyl)propanamide], which “Average % Control F1” value [1] is on record?
The value was 74.86%.

What about the “Average % Control F1” value ([2]; F1 alone 0.1 (10^-5) Wt %) of the same compound?
The value was 24.39%.

What about the “Average % Control F1” value ([2]; F1 alone 0.2 (10^-5) Wt %) of the same compound?
Its value is 5.79%.

What about the “Average % Control F1” value ([2]; F1 alone 0.78 (10^-5) Wt %) of the same compound?
Its value is 25.58%.

What about the “Average % Control F1” value ([2]; F1 alone 0.8 (10^-5) Wt %) of the same compound?
The value was 24.39% and 47.56%.

And the “Average % Control F1” value ([2]; F1 alone 2.5 (10^-5) Wt %)?
The value was 29.04%.

Source: patent publication US20250338846A1, “COMPOSITIONS HAVING PESTICIDAL UTILITY AND PROCESSES RELATED THERETO” (CORTEVA AGRISCIENCE, LLC, priority 2022, published 2025)
